These results are taken from US11596662B2, “Passion flower seed extract, and cosmetic, pharmaceutical or dermatological compositions containing same” (priority 2015, dated 2023).

The test system of assay [1] is H2O2-treated keratinocytes. In words: ROS production in H2O2-treated keratinocytes (H2DCF-DA probe). Conditions: 24 hours, then 100 μM H2O2 20 minutes. In kind it is cell-based, human. On the procedure: The antioxidant potential of an extract of the invention with respect to H2O2 induction of reactive oxygen species was studied.
Normal human keratinocytes were incubated for 24 hours in the presence of a 0.002%, a 0.005% and a 0.01% (w/v) extract of the invention, as obtained in Example 1, or of 500 μM vitamin C and 10 μM quercetin (reference antioxidants) before incorporation of the H2DCF-DA probe (incubation for 60 minutes).
The keratinocytes were then stimulated with 100 μM hydrogen peroxide (H2O2) for 20 minutes and the production of reactive oxygen species (ROS) was evaluated by measurement of fluorescence.
(§1) The results were statistically analysed by one-way ANOVA followed by Tukey's test (GraphPad PRISM version 5.02 software, GraphPad Software, San Diego, Calif., USA).

Assay [2] relates to keratinocytes treated with 9 μg/ml BaP. In words: ROS production in keratinocytes treated with 9 μg/ml BaP (H2DCF-DA probe). Conditions: 24 hours, then 9 μg/ml BaP 20 minutes. In kind it is cell-based, human. The procedure:
The keratinocytes were then stimulated with 9 μg/ml benzo-α-pyrene (BaP) for 20 minutes. ROS production was evaluated by measurement of fluorescence.
(§2) The significance of the results was verified by Student's t-test.

The subject of another assay is MMP1. In words: IR-induced production of MMP1 in normal human fibroblasts (ELISA). Conditions: 10^−7 M, 48 hours after IR 0.57 kJ/cm^2. In kind it is cell-based. The procedure: The ability of an extract of the invention to protect dermal cells from the harmful effects of IR rays was studied by evaluating MMP1 production.
Normal human fibroblasts (NHF) were incubated in the presence of a 0.001% extract of the invention, as obtained in Example 1, or of 10^−7 M dexamethasone (reference anti-inflammatory) for 48 hours following 1 hour of infrared irradiation (0.57 kJ/cm^2).
After incubation, the supernatants are collected in order to assay released MMP1 (ELISA Kit, R&D Systems).
as §2
In general terms: An ELISA detects its analyte on a solid surface through an enzyme-linked reagent.

Assay [3] concerns keratinocytes treated by UV at 2400 J/m^2. In words: ROS production in keratinocytes treated by UV at 2400 J/m^2. The assay is classed as cell-based, human. To be noted: 500 μM. On the procedure: The antioxidant potential of an extract of the invention with respect to UV-irradiation-induced reactive oxygen species (ROS) was studied.
Normal human keratinocytes were incubated for 24 hours in the presence of a 0.001% and a 0.005% (w/v) extract of the invention, as obtained in Example 1, or of 500 μM vitamin C (reference antioxidant), before incorporation of the H2DCF-DA probe (incubation for 1 hour).
The keratinocytes were then stimulated with UV at 2400 J/m^2 (2000 J/m^2 UVB and 400 J/m^2 UVA) then returned to culture in the presence of a 0.001% and a 0.005% (w/v) extract of the invention, as obtained in Example 1, or of 500 μM vitamin C, for 15 minutes at 37° C.
The production of reactive oxygen species (ROS) was evaluated by measurement of fluorescence and the value obtained was normalized to the quantity of cells obtained using an MTT cell viability assay.
as §1

The next assay concerns haem oxygenase 1 (HMOX1). In words: HMOX1 production by fibroblasts (ELISA). In kind it is cell-based, human. Conditions: 24 hours. On the procedure: An extract of the invention was analysed on the protein expression of haem oxygenase.
Normal human fibroblasts were treated for 24 hours with a 0.002% and a 0.005% (w/v) extract of the invention, as obtained in Example 1, and with 5 and 10 μM curcumin (reference hormetin).
At the end of the treatment, intracellular haem oxygenase 1 (or HMOX1 or H01) was quantified using an ELISA technique. Staining, proportional to the quantity of the marker of interest, was measured by reading the optical density (OD) at 450 nm, and the value obtained was related to the quantity of cells obtained by a protein assay using the BC Assay (Interchim).
The results were statistically analysed by one-way ANOVA followed by Dunnett's test (GraphPad PRISM version 5.02 software, GraphPad Software, San Diego, Calif., USA).

In another assay the test system is prostaglandin E2 (PGE2). In words: PGE2 production in PMA-treated keratinocytes. The assay is classed as cell-based, human. Conditions: 10^−6 M, 24 hours pretreatment, then PMA 0.1 μg/ml 24 hours. The procedure: The anti-inflammatory protection of an extract of the invention with respect to a chemical molecule, PMA, was studied by analysis of the release of prostaglandin 2 (PGE2).
Normal human keratinocytes were pretreated with a 0.002% and a 0.005% extract of the invention, as obtained in Example 1, and with 10^−6 M indomethacin (anti-inflammatory control of the prostaglandin pathway) for 24 hours at 37° C., in order to be able to measure a level of protection of the active agent with respect to inflammation by 0.1 μg/ml PMA (phorbol 12-myristate 13-acetate) used on these same cell monolayers for a further 24 hours. At the end of the treatment, the supernatants are collected and an assay of prostaglandin E2 (PGE2; R&D Systems) is performed. Staining, proportional to the amount of PGE2, was measured by reading the optical density (OD) at 450 nm.
as §2

The subject of a further assay is Nrf2. In words: Nrf2 activity in ARE-luciferase-transfected HaCaT keratinocytes. To be noted: 6 hours. In kind it is cell-based. On the procedure:
The effect of the extract of the invention was evaluated with respect to activation of translocation of Nrf2, precursor of the cascade responsible for the hormetic response and for certain detoxification pathways of the organism.
ARE-luciferase-transfected HaCaT keratinocytes, containing the antioxidant response element (ARE) plasmid NQO1, which is a specific plasmid for activation of Nrf2 and luciferase (reporter gene), were treated for 6 hours at 37° C. with an extract of the invention, as obtained in Example 1, at concentrations ranging from 0.01% to 0.0005% (w/v) and with a positive reference, 20 μM tert-butylhydroquinone.
At the end of the treatment, the cell monolayers are lysed, luciferase activity is assayed using a “Luciferase Assay Kit” from PROMEGA, and the protein content of each lysate is assayed using the Bradford method (BioRad).

Consider `O=c1c(O)c(-c2ccc(O)c(O)c2)oc2cc(O)cc(O)c12` [quercetin], for which the “ROS % change (Significance)” value in assay [1] (10 μM) was −67%; in assay [2] (10 μM), −32%. Moreover, the “ROS (fluorescence units)” value in assay [1] (10 μM) is listed as 14367.847 ± 1790.753 fluorescence units; in assay [2] (10 μM) it was 17140 ± 1930 fluorescence units.

On to `C[C@@H]1C[C@H]2[C@@H]3CCC4=CC(=O)C=C[C@]4(C)[C@@]3(F)[C@@H](O)C[C@]2(C)[C@@]1(O)C(=O)CO` [Dexamethasone, dexamethasone], for which, in the assay with MMP1, the “% protection (IR-induced MMP1)” value came to 102% and the “MMP1” value worked out at 9.3 ng/mL.

As for `O=C1O[C@H]([C@@H](O)CO)C(O)=C1O` [vitamin C], in assay [1] (500 μM), the “ROS % change (Significance)” value is on record as −51% and the “ROS (fluorescence units)” value turned out to be 21719.018 ± 3174.253 fluorescence units. In addition, in assay [2] (500 μM), the “ROS % change (Significance)” value is −16% and the “ROS (fluorescence units)” value is given as 14089 ± 1719 fluorescence units. Further, the “ROS (fluorescence intensity/MTT)” value in assay [3] (UV 2400 J/m^2) is reported as 26005 ± 3723 fluorescence intensity/MTT. In addition, the ROS % change in assay [3] (UV 2400 J/m^2, vs control with UVs) is reported as −40%.

Regarding `COc1cc(/C=C/C(=O)CC(=O)/C=C/c2ccc(O)c(OC)c2)ccc1O` [Curcumin, curcumin], the “HMOX1 (ng/ml on quantity of cells)” value with haem oxygenase 1 (HMOX1) (5 μM) is reported as 0.060 ± 0.002 ng/ml on quantity of cells; with haem oxygenase 1 (HMOX1) (10 μM) it was 0.105 ± 0.006 ng/ml on quantity of cells. Further, the “ROS % change (Significance)” value in assay [2] (10 μM) is on record as −16%. In assay [2] (10 μM), the “ROS (fluorescence units)” value is 14065 ± 1231 fluorescence units.

What is called inhibition is how much of the control response was suppressed. Consider `COc1ccc2c(c1)c(CC(=O)O)c(C)n2C(=O)c1ccc(Cl)cc1` [Indomethacin, indomethacin], for which the “PGE2” value in the assay with prostaglandin E2 (PGE2) was determined as 52 ± 8 pg/mL. Besides, the inhibition at 1 µM in the assay on prostaglandin E2 (PGE2) (Homo sapiens, Keratinocyte) stood at 100%.

Turning to `Oc1ccc(C=Cc2cc(O)cc(O)c2)cc1` [resveratrol], in assay [2] (10 μM), the “ROS % change (Significance)” value is listed as −21% and the “ROS (fluorescence units)” value is listed as 20357 ± 503 fluorescence units.

Turning to `CC(C)(C)c1cc(O)ccc1O` [Tert-butylhydroquinone, tert-butylhydroquinone], the “Nrf2 activity (mean normalized RLU/μg of proteins)” value in the assay with Nrf2 (20 μM) is recorded as 23216.4 RLU/μg of proteins. For the same compound, in the assay with Nrf2 (20 μM (positive reference = 100)), the “Nrf2 Activation (%)” value was 100%.
